Where two headings read alike, the source gives them in different places. Values belong to the compound of their own block, whether it stands above or below them.
Key:
[1] = target: T1, Human recombinant C-terminal His-tag-HDAC8 (Homo sapiens, UniProt Q9BY41); set-up: method as in PMID 21832257; details: profiles of reference HDACi; read-out: HDAC Inhibition, IC50, HDAC8; cited from earlier work
T1 construct: His (C); purchased BPS Bioscience 50008
T1 sequence (Q9BY41 1-377): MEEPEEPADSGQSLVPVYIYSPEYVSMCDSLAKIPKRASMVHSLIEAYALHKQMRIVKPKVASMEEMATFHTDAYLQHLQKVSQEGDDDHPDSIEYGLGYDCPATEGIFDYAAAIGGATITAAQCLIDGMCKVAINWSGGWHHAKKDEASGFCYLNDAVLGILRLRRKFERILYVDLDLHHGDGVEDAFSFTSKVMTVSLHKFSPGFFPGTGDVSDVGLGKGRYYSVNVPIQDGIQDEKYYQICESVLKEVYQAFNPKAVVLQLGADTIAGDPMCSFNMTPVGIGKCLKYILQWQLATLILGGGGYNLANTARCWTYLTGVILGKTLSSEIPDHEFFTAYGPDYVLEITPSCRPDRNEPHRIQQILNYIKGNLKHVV

[2] = target: T2, Human recombinant C-ter-His-FLAG-HDAC1 (Homo sapiens, UniProt Q13547); set-up: method as in PMID 21832257; details: profiles of reference HDACi; read-out: HDAC Inhibition, IC50, HDAC1; cited from earlier work
T2 construct: His (C); FLAG (C); purchased BPS Bioscience 50051
T2 sequence (Q13547 whole entry): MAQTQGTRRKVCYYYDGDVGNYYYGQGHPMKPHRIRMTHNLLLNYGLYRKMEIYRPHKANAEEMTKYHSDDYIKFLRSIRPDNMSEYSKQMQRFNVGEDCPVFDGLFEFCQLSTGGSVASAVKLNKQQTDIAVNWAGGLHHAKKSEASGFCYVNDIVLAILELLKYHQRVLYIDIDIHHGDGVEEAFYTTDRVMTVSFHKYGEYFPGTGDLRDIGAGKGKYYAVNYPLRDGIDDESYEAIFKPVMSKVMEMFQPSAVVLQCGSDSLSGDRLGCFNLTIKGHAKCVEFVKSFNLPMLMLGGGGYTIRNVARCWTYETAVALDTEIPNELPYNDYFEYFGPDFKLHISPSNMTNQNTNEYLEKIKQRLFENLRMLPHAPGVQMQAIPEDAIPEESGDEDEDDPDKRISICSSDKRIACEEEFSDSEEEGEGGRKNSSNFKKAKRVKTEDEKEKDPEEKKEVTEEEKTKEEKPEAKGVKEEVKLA

[3] = target: T3, Human recombinant HDAC-3/NcoR2 (Homo sapiens, UniProt O15379); details: read-out: HDAC Inhibition, IC50, HDAC3; cited from earlier work
T3 sequence (O15379 whole entry): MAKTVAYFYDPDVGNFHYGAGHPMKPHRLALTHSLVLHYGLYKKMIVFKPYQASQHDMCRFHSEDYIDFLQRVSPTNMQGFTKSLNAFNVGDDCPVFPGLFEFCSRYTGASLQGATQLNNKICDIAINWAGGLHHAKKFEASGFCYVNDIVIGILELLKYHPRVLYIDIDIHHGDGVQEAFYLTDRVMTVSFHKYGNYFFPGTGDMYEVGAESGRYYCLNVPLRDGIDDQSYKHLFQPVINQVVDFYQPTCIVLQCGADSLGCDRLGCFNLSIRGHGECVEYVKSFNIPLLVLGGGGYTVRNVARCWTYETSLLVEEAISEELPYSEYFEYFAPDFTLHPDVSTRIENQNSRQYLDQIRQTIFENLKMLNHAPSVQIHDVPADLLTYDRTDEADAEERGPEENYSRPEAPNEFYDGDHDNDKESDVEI
T3 sequence (Q9Y618 395-489 partner limits assumed): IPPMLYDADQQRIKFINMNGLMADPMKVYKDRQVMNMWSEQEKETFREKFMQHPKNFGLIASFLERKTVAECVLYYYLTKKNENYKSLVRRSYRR

[4] = target: T4, Human recombinant N-ter-GST-HDAC-6 (Homo sapiens, UniProt Q9UBN7); details: read-out: HDAC Inhibition, IC50, HDAC6; profiles of reference HDACi; cited from earlier work
T4 sequence (Q9UBN7 1-1215): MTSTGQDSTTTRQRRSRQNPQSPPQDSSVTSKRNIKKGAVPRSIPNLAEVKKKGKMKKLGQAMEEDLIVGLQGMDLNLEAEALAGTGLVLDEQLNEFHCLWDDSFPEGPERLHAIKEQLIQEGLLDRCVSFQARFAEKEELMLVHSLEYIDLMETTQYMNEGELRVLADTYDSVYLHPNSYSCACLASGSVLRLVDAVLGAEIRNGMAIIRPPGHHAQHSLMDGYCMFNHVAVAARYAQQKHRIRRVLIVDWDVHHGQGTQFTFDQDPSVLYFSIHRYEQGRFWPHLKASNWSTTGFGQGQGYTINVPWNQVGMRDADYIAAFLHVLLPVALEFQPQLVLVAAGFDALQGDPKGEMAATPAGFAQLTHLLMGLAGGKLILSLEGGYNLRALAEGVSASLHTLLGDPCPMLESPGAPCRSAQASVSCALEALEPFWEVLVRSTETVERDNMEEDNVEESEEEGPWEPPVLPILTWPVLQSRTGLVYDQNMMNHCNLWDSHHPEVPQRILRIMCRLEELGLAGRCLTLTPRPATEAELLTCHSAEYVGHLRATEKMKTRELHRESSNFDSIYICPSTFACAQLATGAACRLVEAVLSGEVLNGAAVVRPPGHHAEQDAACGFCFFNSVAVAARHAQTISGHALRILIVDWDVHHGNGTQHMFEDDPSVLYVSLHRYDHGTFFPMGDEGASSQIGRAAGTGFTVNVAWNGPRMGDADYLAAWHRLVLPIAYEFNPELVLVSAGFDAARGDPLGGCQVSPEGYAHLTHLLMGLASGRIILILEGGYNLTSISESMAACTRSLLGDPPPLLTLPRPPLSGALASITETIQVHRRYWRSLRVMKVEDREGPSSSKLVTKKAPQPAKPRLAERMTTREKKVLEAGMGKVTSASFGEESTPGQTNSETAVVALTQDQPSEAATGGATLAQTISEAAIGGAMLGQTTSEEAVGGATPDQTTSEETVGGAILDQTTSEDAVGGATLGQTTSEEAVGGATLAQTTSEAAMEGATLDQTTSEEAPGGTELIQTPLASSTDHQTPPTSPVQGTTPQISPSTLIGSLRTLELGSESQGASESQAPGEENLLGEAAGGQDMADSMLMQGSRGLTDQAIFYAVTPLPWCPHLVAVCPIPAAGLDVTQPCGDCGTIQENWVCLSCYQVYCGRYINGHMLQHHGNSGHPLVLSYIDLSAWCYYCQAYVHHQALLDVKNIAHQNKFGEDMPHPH

MDA-MB-231 cells [5] = assay: Cell cycle analysis, propidium iodide flow cytometry; type: cell-based, human; details: 72 h
Procedure: MDA-MB-231 cells were treated with tested compounds for specified time courses. After treatment, examined cells were washed in cold PBS and incubated for 30 min in 96% ethanol on ice, centrifuged, and incubated with 80 μL RNase A ([…]) and 50 μL propidium iodide (50 μg/mL) for 30 min at 37 °C. The cell cycle was analyzed by FACS Calibur E440 (Becton Dickinson) flow cytometer and Cell Quest software. Results are presented as a percentage of cell cycle phases.

MCF-7 cells = assay: Cell viability (MTT) assay, MCF-7; type: cell-based; details: Homo sapiens, MCF7, 48 h, read-out: Cytotoxic activity IC50 ± SD, MCF-7
Procedure: (§1) Human breast adenocarcinoma cells (MCF-7, ATCC® HTB-22™) and triple-negative breast cancer cells (MDA-MB-231, ATCC® HTB-26™) were obtained from the American Type Culture Collection (Rockville, MD, USA). Cells were maintained as a monolayer culture in DMEM:Ham’s 12 (1:1) medium (Sigma-Aldrich, St. Louis, MO, USA) supplemented with penicillin (192 U/mL), streptomycin (200 µg/mL), and 10% of heat-inactivated fetal calf serum (FCS). Cells were grown at 37 °C in 5% CO2 and humidified air atmosphere, by twice weekly subculture.
(§2) Cytotoxic activity of synthesized 1-benzhydryl-piperazine-based HDAC inhibitors was assessed on MDA-MB-231 and MCF-7 cells using an MTT assay. MDA-MB-231 (5 × 10^3 cells/well) and MCF-7 (5 × 10^3 cells/well) were treated with synthesized compounds in six different concentrations (100, 50, 25, 12.5, 6.25, and 3.13 μM), and each concentration was added in five replicates. MTT solution (3-(4,5-dimethylthiazol-2-yl)-2,5-diphenyltetrazolium bromide) (Sigma-Aldrich, St. Louis, USA) was added to each well (20 µL) after 48 h. After 4 h of incubation, 100 μL of 10% SDS was added in each well and incubated at 37 °C. On the next day, the absorbance at 570 nm was recorded. The ratio of absorbance (570 nm) values between treated and control cells multiplied by 100 was used to calculate cell survival (%). The concentration of synthesized HDAC inhibitors that reduced cell viability by 50% was defined as the IC50 value, and was compared to the vehicle control.

MDA-MB-231 tumor spheres = assay: 3D tumor sphere model, MTT and imaging; type: cell-based, human; details: for tumor sphere viability: 50 µM, 72 h, formed spheres, MTT
Procedure: MDA-MB-231 cells were seeded at a cell density of 1000 c/w in 100 μL of DMEM containing 10% FCS in a low-attachment NunclonSphera 96-well ultra-low attachment plate (Thermo Scientific Nunc™, Rochester, NY, USA), to form multicellular tumor spheres, for 4 days. The formation and growth of tumor spheres were examined and imaged with an Olympus CKX53 microscope, using a 10× objective. MDA-MB-231 tumor spheres were treated by carefully adding 50 μL of the medium with fresh nutrient medium for control spheres or with compound-supplemented medium (50 μM) for treated spheres for another 72 h. The cytotoxicity of compounds toward the MDA-MB-231 tumor spheres was investigated by MTT assay.
The formation and growth of tumor spheroids were examined and imaged with an Olympus CKX53 microscope, using 4x objective. The cytotoxicity of compounds toward the MDA-MB-231 tumor spheroids was investigated by MTT assay.

HDAC6 = details: Figure 2; cited from earlier work
MDA-MB-231 cells [6] = assay: Cell viability (MTT) assay, MDA-MB-231; type: cell-based, human; details: Homo sapiens, MDA-MB-231, 48 h, read-out: Cytotoxic activity IC50 ± SD, MDA-MB-231
Procedure: as §1, §2

[7] = test system: intersegmental blood vessels (ISVs) of Tg(fli1:EGFP) zebrafish embryos; assay: Anti-angiogenic activity in Tg(fli1:EGFP) zebrafish embryos; type: in vivo; details: 8b 6.25-50 µM; Suten effective dose 1.56 µM
Procedure: The inhibitory activity of 8b on angiogenesis was examined using embryos of the transgenic zebrafish Tg(fli1:EGFP) line with GFP-labeled endothelial cells, as previously described. Briefly, embryos at the 6–8 hpf stage were exposed to three non-toxic concentrations and incubated at 28 °C by 48 hpf. At 48 hpf, the treated embryos were anesthetized with 0.02% tricaine, imaged under a fluorescence microscope (Olympus BX51, Applied Imaging Corp., San Jose, CA, USA), and analyzed for the development of intersegmental blood vessels (ISVs). The experiment was performed three times using ten embryos per concentration. ISV lengths were measured using ImageJ program, and expressed as mean value with standard deviation. Inhibitory effect of the applied treatment was determined in relation to the control (DMSO-treated) group, arbitrarily set to 100%.

[8] = target: T4, Human recombinant N-ter-GST-HDAC-6; assay: HDAC-Glo I/II bioluminogenic enzyme assay, HDAC6; type: biochemical; set-up: GST (N); purchased BPS Bioscience 50006
[9] = target: T1, Human recombinant C-terminal His-tag-HDAC8; assay: HDAC-Glo I/II bioluminogenic enzyme assay, HDAC8; type: biochemical; details: mean ± SD of three independent experiments; read-out: HDAC Inhibition, IC50 ± SD, HDAC8
[10] = target: T2, Human recombinant C-ter-His-FLAG-HDAC1; assay: HDAC-Glo I/II bioluminogenic enzyme assay, HDAC1; type: biochemical; details: mean ± SD of three independent experiments; read-out: HDAC Inhibition, IC50 ± SD, HDAC1
[11] = target: T3, Human recombinant HDAC-3/NcoR2; assay: HDAC-Glo I/II bioluminogenic enzyme assay, HDAC3; type: biochemical; set-up: purchased BPS Bioscience 50003; details: mean ± SD of three independent experiments; read-out: HDAC Inhibition, IC50 ± SD, HDAC3
MDA-MB-231 cells [12] = assay: Apoptosis assay, Annexin V-FITC/7-AAD flow cytometry; type: cell-based, human; details: IC50 concentration
Procedure: Examined breast cancer cells (MDA-MB-231) were stained with annexin V–fluorescein isothiocyanate/and 7AAD (BD Pharmingen, San Diego, CA, USA), and the samples were prepared following the specifications given by manufacturer. The population of apoptotic cells was analyzed by flow cytometry using a FACS Calibur cytometer and Cell Quest computer software (Becton Dickinson, Heidelberg, Germany).

[13] = 5 μM, mean ± standard error of triplicate

Compound: CCCC(=O)[O-].[Na+] [Sodium butyrate]
IC50 [1]: 10.4 µM | IC50 [2]: 8.3 µM | IC50 [3]: 4.8 µM | IC50 [4]: > 1 mM

Compound: CN1CCc2c(c3ccccc3n2Cc2ccc(C(=O)NO)cc2)C1 [tubastatin A, reference compound]
sub-G1 phase cells (MDA-MB-231 cells [5]): around 30% | IC50 (MCF-7 cells): 93.3 ± 9.4 µM | tumor sphere viability (MDA-MB-231 tumor spheres): mild decrease | sphere formation and spheres viability (MDA-MB-231 tumor spheres; co-culture 50 μM, 4 d in sphere culture conditions): significantly inhibited | IC50 (HDAC6): […] | IC50 (MDA-MB-231 cells [6]): 20.8 ± 2.84 µM

Compound: CCN(CC)CCNC(=O)c1c(C)[nH]c(/C=C2\C(=O)Nc3ccc(F)cc32)c1C [sunitinib-malate, reference compound]
toxic response in embryos at anti-angiogenic effective doses [7]: life-threatening pericardial edema

inhibition at 5 µM [8, 13]: < 25%
Compound: O=C(CCCCN1CCN(C(c2ccccc2)c2ccccc2)CC1)NO [Compound 5b, 5-(4-(diphenylmethyl)-piperazin-1-yl)-N-hydroxypentanamide]

inhibition at 5 µM [8, 13]: < 25%
Compound: O=C(CCN1CCN(C(c2ccccc2)c2ccccc2)CC1)NO [Compound 3b, 3-(4-(diphenylmethyl)-piperazin-1-yl)-N-hydroxypropionamide]

Compound: O=C(NO)c1cnc(NC2(c3ccccc3)CCC(F)(F)CC2)nc1 [ACY-1083]
IC50 (HDAC6): 3 nM

Compound: CCCC(CCC)C(=O)O [Valproic acid]
IC50 [2]: 660 µM | IC50 [4]: > 1 mM

IC50 [9]: 2440 ± 510 nM | IC50 [10]: 4.73 ± 0.67 µM | % HDAC6 Inhibition at 5 μM [8, 13]: 95.6 ± 0.9% | inhibition at 5 µM [8, 13]: > 90% | IC50 ([8]; mean ± SD of three independent experiments, read-out: HDAC Inhibition, IC50 ± SD, HDAC6): 186 ± 5 nM | Selectivity Ratio HDAC1/6 ([8]; ratio of IC50 values): 25.4 | Selectivity Ratio HDAC3/6 ([8]; ratio of IC50 values): 10 | Selectivity Ratio HDAC8/6 ([8]; ratio of IC50 values): 13.1 | IC50 [11]: 1860 ± 90 nM
Compound: O=C(CCCCCN1CCN(C(c2ccccc2)c2ccccc2)CC1)NO [Compound 6b, 6-(4-(diphenylmethyl)-piperazin-1-yl)-N-hydroxyhexanamide]
IC50 (MCF-7 cells): 84 ± 5.2 µM | tumor sphere viability (MDA-MB-231 tumor spheres): mild decrease | sphere formation (MDA-MB-231 tumor spheres; co-culture 4 d, at higher concentrations): inhibit sphere formation to some extent | IC50 (MDA-MB-231 cells [6]): 33.4 ± 2.79 µM | programmed cell death (MDA-MB-231 cells [12]; 24 h): slight increase | early apoptotic cells (MDA-MB-231 cells [12]; 48 h): approximately 20% | early apoptotic cells (MDA-MB-231 cells [12]; 72 h): approximately 20%

— article PMC9785542, “Discovery of 1-Benzhydryl-Piperazine-Based HDAC Inhibitors with Anti-Breast Cancer Activity: Synthesis, Molecular Modeling, In Vitro and In Vivo Biological Evaluation” (Pharmaceutics, 2022)
